Assay results published in article PMC10733197, “Utilization of Rosuvastatin and Endogenous Biomarkers in Evaluating the Impact of Ritlecitinib on BCRP, OATP1B1, and OAT3 Transporter Activity” (Pharmaceutical Research, 2023).

Columns and labels:
Assay type in all cases: cell-based
OAT3 = molecular target: T1, OAT3 (Homo sapiens, UniProt Q8TCC7); test: OAT3-mediated 3H-E3S uptake inhibition in transfected HEK293 cells; settings: for Fraction Inhibited / Triggers Drug Interaction Cutoff / Cmax,u/IC50 ratio: OAT3; for Fraction Inhibited: Cmax,u/(Cmax,u + IC50) (Eq. 2); for Triggers Drug Interaction Cutoff: Cmax,u/IC50 cutoff 0.1 (FDA); for Triggers Drug Interaction Cutoff / Cmax,u/IC50 ratio: 0.02 (EMA); for Cmax,u/IC50 ratio: cutoff 0.1 (FDA), ritlecitinib 200 mg; for IC50: renal OAT3, E3S as substrate (0.1 µM per table footnote), 3 min, HEK293, mean ± SD, n = 3
T1 construct: expressed in transfected cells; host or cells: HEK293
T1 sequence (Q8TCC7 1-542): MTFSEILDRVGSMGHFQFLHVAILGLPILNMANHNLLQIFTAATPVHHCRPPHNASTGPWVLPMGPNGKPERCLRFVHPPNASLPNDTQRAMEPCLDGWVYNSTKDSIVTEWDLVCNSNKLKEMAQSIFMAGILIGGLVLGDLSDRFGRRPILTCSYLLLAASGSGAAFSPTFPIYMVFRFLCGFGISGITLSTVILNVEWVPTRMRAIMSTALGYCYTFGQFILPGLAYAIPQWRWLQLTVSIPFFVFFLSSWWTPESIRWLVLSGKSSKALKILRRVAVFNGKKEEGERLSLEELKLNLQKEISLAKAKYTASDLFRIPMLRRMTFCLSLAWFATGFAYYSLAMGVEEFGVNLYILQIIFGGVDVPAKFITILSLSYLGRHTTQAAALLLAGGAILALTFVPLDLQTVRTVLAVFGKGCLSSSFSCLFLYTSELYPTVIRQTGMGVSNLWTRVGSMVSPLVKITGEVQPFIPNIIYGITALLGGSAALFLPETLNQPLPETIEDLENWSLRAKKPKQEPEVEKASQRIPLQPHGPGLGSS
Method: (§1) Sources of human embryonic kidney (HEK) 293 cells expressing individual transfected human solute carriers (SLC), test substrates, and cell culture reagents, as well as detailed cell culture methods, incubations, and sample processing, have been described previously. SLC included hepatic OATP1B1, OATP1B3, and renal OAT1 and OAT3. […] Likewise, the uptake of non-labeled rosuvastatin (Biosynth, San Diego, CA) at 0.3—0.5 µM was determined for OATP1B1 and OATP1B3 at 1—3 min, and CP-I (Frontier Specialty Chemicals, Logan, UT) at 0.1 µM was determined for OATP1B1 and OATP1B3 at 10 min [14].
(§2) In all cases, ritlecitinib (0.018 to 1000 µM) and metabolite M2 (0.018 to 300 µM) was tested over a wide range of final concentrations dissolved in dimethyl sulfoxide (the final concentration of dimethyl sulfoxide in the assays was 1% v/v). For each transporter, the IC50 was estimated using a four-parameter logistic equation (Eq. 1) using GraphPad Prism software (GraphPad Software Inc, La Jolla, CA).1 %UptakeActivity=Bottom+(Top-Bottom)/1+10^(LogIC50-inhib*HillSlope)
(§3) At the end of the uptake and inhibition experiment, cellular accumulation of ^3H-PAH and ^3H-E3S was determined using liquid scintillation counting as previously described. Rosuvastatin uptake was determined using a tandem high performance liquid chromatography (LC)-mass spectrometry (MS) assay.
(§4) Assumes no substrate-dependent shift in IC50 versus PDA.^1 Each OAT form was singularly transfected in human embryonic kidney 293 cells.

OATP1B3 = molecular target: T2, OATP1B3 (Homo sapiens, UniProt Q9NPD5); test: OATP1B3-mediated rosuvastatin uptake inhibition in transfected HEK293 cells; settings: for IC50: hepatic OATP1B3, RSV 0.3–0.5 µM as substrate, 1—3 min, HEK293, mean ± SD, n = 3
T2 construct: expressed in transfected cells; host or cells: HEK293
T2 sequence (Q9NPD5 1-702): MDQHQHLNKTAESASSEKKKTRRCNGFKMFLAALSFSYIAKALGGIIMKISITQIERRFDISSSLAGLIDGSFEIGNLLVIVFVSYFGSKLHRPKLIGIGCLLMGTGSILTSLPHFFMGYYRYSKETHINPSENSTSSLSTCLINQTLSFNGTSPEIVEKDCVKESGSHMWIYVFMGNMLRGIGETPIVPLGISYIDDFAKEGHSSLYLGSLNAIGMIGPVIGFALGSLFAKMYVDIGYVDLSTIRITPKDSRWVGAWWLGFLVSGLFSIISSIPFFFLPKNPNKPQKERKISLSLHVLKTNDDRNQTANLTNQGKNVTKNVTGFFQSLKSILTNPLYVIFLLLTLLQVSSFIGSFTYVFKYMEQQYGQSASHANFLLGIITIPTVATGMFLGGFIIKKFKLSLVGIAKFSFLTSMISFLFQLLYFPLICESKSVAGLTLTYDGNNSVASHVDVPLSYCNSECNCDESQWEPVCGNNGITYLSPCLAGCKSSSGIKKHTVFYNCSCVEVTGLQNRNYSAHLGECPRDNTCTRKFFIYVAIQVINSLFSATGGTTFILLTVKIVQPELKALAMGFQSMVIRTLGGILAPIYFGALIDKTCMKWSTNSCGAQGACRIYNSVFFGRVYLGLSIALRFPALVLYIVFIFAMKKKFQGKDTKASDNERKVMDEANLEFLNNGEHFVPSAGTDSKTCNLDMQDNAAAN
Method: as §1, §2, §3

OAT1 = molecular target: T3, OAT1 (Homo sapiens, UniProt Q4U2R8); test: OAT1-mediated 3H-PAH uptake inhibition in transfected HEK293 cells; set-up: expressed in transfected cells; host or cells: HEK293; settings: for Fraction Inhibited / Triggers Drug Interaction Cutoff / Cmax,u/IC50 ratio: OAT1; for Fraction Inhibited: Cmax,u/(Cmax,u + IC50) (Eq. 2); for Triggers Drug Interaction Cutoff: Cmax,u/IC50 cutoff 0.1 (FDA); for Triggers Drug Interaction Cutoff / Cmax,u/IC50 ratio: 0.02 (EMA); for Cmax,u/IC50 ratio: cutoff 0.1 (FDA), ritlecitinib 200 mg; for IC50: renal OAT1, PAH 0.5 µM as substrate, 4 min, HEK293, mean ± SD, n = 3
T3 sequence (Q4U2R8 1-563): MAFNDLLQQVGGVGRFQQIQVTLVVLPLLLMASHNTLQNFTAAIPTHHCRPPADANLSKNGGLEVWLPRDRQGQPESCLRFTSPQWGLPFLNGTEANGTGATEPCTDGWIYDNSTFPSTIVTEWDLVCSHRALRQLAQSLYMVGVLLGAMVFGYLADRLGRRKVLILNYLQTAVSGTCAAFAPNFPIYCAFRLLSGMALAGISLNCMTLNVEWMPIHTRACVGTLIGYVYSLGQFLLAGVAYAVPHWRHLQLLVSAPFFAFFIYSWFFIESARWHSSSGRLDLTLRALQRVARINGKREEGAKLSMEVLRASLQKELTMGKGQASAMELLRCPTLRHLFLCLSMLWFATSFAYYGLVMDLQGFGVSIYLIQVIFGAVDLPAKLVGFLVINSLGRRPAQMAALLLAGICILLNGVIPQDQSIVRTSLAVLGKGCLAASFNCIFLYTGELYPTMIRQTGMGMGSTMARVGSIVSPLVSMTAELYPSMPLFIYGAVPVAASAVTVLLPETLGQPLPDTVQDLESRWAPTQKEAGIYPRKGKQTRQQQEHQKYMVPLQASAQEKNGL
Method: as §1, §2, §3, §4

Row | % inhibition at the highest concentration tested (OAT3; OAT3 (E3S), highest concentration 300 µM) | Fraction Inhibited (OAT3) | Triggers Drug Interaction Cutoff (OAT3) | Cmax,u/IC50 ratio (OAT3) | IC50 (OAT3) | Triggers Drug Interaction Cutoff (OATP1B3; OATP1B3 (RSV)) | Cmax,u/IC50 ratio (OATP1B3; OATP1B3 (RSV), Cmax,u used for metabolite M2) | Fraction Inhibited (OATP1B3; OATP1B3 (RSV), Cmax,u/(Cmax,u + IC50) for M2 (Eq. 3)) | IC50 (OATP1B3) | % inhibition at the highest concentration tested (OAT1; OAT1 (PAH), highest concentration 300 µM) | Fraction Inhibited (OAT1) | Triggers Drug Interaction Cutoff (OAT1) | Cmax,u/IC50 ratio (OAT1) | IC50 (OAT1) | Fraction Inhibited (OAT3; listed as ritlecitinib) | R-value (OATP1B3; OATP1B3 (RSV), 1 + (Imax,inlet,u/IC50), cutoff 1.1 (FDA), 1.04 (EMA)) | Fraction Inhibited (OATP1B3; OATP1B3 (RSV), Imax,inlet,u/(Imax,inlet,u + IC50) (Eq. 1)) | Fraction Inhibited (OATP1B3; OATP1B3 (RSV), Imax,inlet,u/(Imax,inlet,u + IC50) (Eq. 1), listed as ritlecitinib) | Fraction Inhibited (OAT1; listed as ritlecitinib) | SMILES
1 | 43% | < 0.01 | No | < 0.01 | > 300 µM | Yes | 0.17 | 0.1 | 8.4 ± 0.2 µM | 40% | < 0.01 | No | < 0.01 | > 300 µM |  |  |  |  |  | C[C@H]1CC[C@@H](Nc2ncnc3[nH]ccc23)CN1C(=O)CCSC[C@H](N)C(=O)O [M2]
2 |  | 0.1 | Yes | 0.11 | 41 ± 3 µM | No |  |  | 934 ± 59 µM |  | 0.03 | Yes | 0.03 | 156 ± 6 µM | ≤ 0.1 | 1.03 | 0.03 | ≤ 0.1 | ≤ 0.1 | C=CC(=O)N1C[C@H](Nc2ncnc3[nH]ccc23)CC[C@@H]1C [Ritlecitinib, ritlecitinib]
